Experiment: Radioactive metabolites in plasma, urine and feces after single oral dose of [14C] compound (I) to monkeys
Format: in vivo, cynomolgus monkey
Conditions: for % Distribution of radioactive metabolites in pooled plasma, Monkey (4 h): oral 10 mg/kg [14C] compound (I), plasma 4 h; for Metabolites in Feces (0-168 hr), Monkey, % Dose / Metabolites in Feces (0-168 hr), Monkey, % Rad / Metabolites in Urine (0-168 hr), Monkey, % Dose / Metabolites in Urine (0-168 hr), Monkey, % Rad: oral 10 mg/kg; for Metabolites in Feces (0-168 hr), Monkey, % Dose / Metabolites in Feces (0-168 hr), Monkey, % Rad: pooled fecal extracts 0-168 hr; for Metabolites in Urine (0-168 hr), Monkey, % Dose / Metabolites in Urine (0-168 hr), Monkey, % Rad: pooled urine 0-168 hr
Procedure: A separate bile-duct cannulated (BDC) monkey study was also conducted.
Plasma samples were segregated by collection time and equal volumes of individual plasma samples at a given time point were combined for biotransformation profiling.
The C-14 label was on the carbon-2 of the thiazole ring.
HPLC was performed on an Agilent 1100™ system equipped with binary pumps, autoinjector, and a column heater. A Phenomenex Synergy Polar-RP® column (4.6×250 mm, 5 micron) was used for metabolite separation. All HPLC analyses were performed at 1 mL/min flow rate at 35° C. The HPLC mobile phase consisted of (A) water with 0.1% formic acid and (B) acetonitrile with 0.1% formic acid.
Each fraction of column eluent was evaporated to dryness on a Savant Speed-Vac (Savant Instruments Inc., Holbrook, N.Y.) and counted for radioactivity with a Packard Top Count® microplate scintillation analyzer (Packard Biosciences, Downers Grove, Ill.).
The volumes of pooled plasma processed for HPLC analysis for rat, monkey and human ranged between 1.5 and 8.0 mL. Pooled plasma samples were extracted with methanol/acetonitrile (1:1) at a ratio of 2 volumes solvent to 1 volume of plasma. The mixtures were vortex mixed, sonicated for 5 min, and centrifuged at 3500 rpm for 10 min. The supernatants were transferred into new tubes. The remaining pellets were extracted two more times with 3 mL of methanol/acetonitrile (1:1). The supernatants were combined and evaporated to dryness in a Savant Speed-Vac (Savant Instruments, Inc., Holbrook, N.Y.). The residue was reconstituted into 0.35 to 0.45 mL of 30% acetonitrile in water, vortex mixed and centrifuged at 13000 rpm for 5 min (American Scientific Products Biofuge A centrifuge, Heraeus Sepatech GmbH, Germany). The supernatant was injected onto the HPLC for profiling. Aliquots of the reconstituted samples (30 μl) were also counted on the liquid scintillation counter (LSC) to determine the recovery of radioactivity.
The pooled monkey and human urine samples (3-5 mL) were extracted with 2 volumes of acetonitrile/acetone (1:1). The mixtures were vortex mixed, sonicated and centrifuged at 3500 rpm for 10 min. The supernatants were evaporated to dryness. The residue was suspended in 0.3-0.5 mL of 30% acetonitrile in water and centrifuged at 13000 rpm for 5 min. Aliquots of the supernatants were injected onto the HPLC or analyzed by LSC for radioactivity recovery. Pooled urine samples from BDC monkeys and rats were centrifuged at 13000 rpm for 10 min and injected onto the HPLC for profiling without further treatment.
The amount of fecal homogenate used for analysis was 0.20, 0.19 and 0.51 g for rat, monkey and human, respectively. Each pooled fecal homogenate was extracted by addition of 3 volumes of acetonitrile/methanol (1:1) to 1 volume of fecal homogenate and mixed on a vortex mixer. The mixture was sonicated for 5 min and then centrifuged at 3000 rpm for 10 min. The supernatants were removed and saved. The extraction was repeated two additional times and the supernatants were combined and evaporated to dryness on a Savant Speed-Vac. […] An aliquot of the supernatant was injected onto the HPLC or analyzed by LSC for radioactivity recovery.
The LC/MS system used for analysis of plasma, urine, bile, and fecal samples consisted of an Agilent 1100™ HPLC system connected to a Finnigan LCQ-DecaXP mass spectrometer. Samples were analyzed using positive electrospray ionization. The capillary temperature used for analysis was 320° C., and the nitrogen gas flow rate, spray current, and voltages were adjusted to give maximum sensitivity. The HPLC conditions were described in section 3.3.1.
Counts per min (CPM) were determined on a Packard TopCount NXT microplate scintillation and luminescence counter. For each injection, the average CPM value (2-4 CPM) obtained from fractions between 2-3 min (column void) in the chromatogram was subtracted from the CPM value of each fraction.

SMILES | % Distribution of radioactive metabolites in pooled plasma, Monkey (4 h) | Metabolites in Feces (0-168 hr), Monkey, % Dose | Metabolites in Feces (0-168 hr), Monkey, % Rad | Metabolites in Urine (0-168 hr), Monkey, % Dose | Metabolites in Urine (0-168 hr), Monkey, % Rad
Cc1nc(Nc2ncc(C(=O)Nc3c(C)cccc3Cl)s2)cc(N2CCNCC2)n1 [M4 (II)] | 3.0% | 2.9% | 3.8% | 0.05% | 1.7%
Cc1nc(Nc2ncc(C(=O)Nc3c(C)cccc3Cl)s2)cc(N2CC[N+]([O-])(CCO)CC2)n1 [M5 (III)] | 2.6% | – | – | 1.1% | 35.8%
Cc1nc(Nc2ncc(C(=O)Nc3c(C)cccc3Cl)s2)cc(N2CCN(CC(=O)O)CC2)n1 [M6 (IV), 2-(4-(6-(5-((2-Chloro-6-methylphenyl)carbamoyl)thiazol-2-ylamino)-2-methylpyrimidin-4-yl)piperazin-1-yl)acetic acid] | 2.7% | 14.0% | 18.2% | 0.06% | 2.2%
Cc1nc(Nc2ncc(C(=O)Nc3c(C)cc(O)cc3Cl)s2)cc(N2CCN(CCO)CC2)n1 [M20 (V)] | 2.8% | 11.7% | 15.2% | 0.02% | 0.6%
Cc1nc(Nc2ncc(C(=O)Nc3c(Cl)cccc3CO)s2)cc(N2CCN(CCO)CC2)n1 [M24 (VI), N-(2-chloro-6-(hydroxymethyl)phenyl)-2-(6-(4-(2-hydroxyethyl)piperazin-1-yl)-2-methylpyrimidin-4-ylamino)thiazole-5-carboxamide] | 0.7% | 6.6% | 8.6% | 0.06% | 1.9%
Cc1nc(Nc2ncc(C(=O)Nc3c(C)cccc3Cl)s2)cc(N2CCN(CCO)CC2)n1 [Parent (I), N-(2-Chloro-6-methylphenyl)-2-[[6-[4-(2-hydroxyethyl)-1-piperazinyl]-2-methyl-4-pyrimidinyl]amino]-5-thiazolecarboxamide] | 32.1% | 24.7% | 32.2% | 0.6% | 21.2%
